# In patent US20260262643A1, “HERBICIDAL BENZOXAZINES” (FMC CORPORATION, priority 2022, published 2026):
# What was measured:
# barnyardgrass [1] = experiment: Test C preemergence; type: in vivo, Echinochloa crusgalli
# Procedure, shortened: (§1)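 Greenhouse herbicide screen, 10-day duration. Test chemicals in solvent/surfactant blend were sprayed onto soil at sowing (pre) or onto 2–10 cm seedlings at one to two leaves (post); injury scored visually against controls, 0 no effect to 100 complete control.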
# blackgrass [2] = experiment: Test C preemergence; type: in vivo, Alopecurus myosuroides
# Procedure, shortened: as §1
# corn [3] = experiment: Test C preemergence; type: in vivo, Zea mays
# Procedure, shortened: as §1
# foxtail, giant [4] = experiment: Test C preemergence; type: in vivo, Setaria faberi
# Excerpt: (§2) Seeds of plant species selected from barnyardgrass (Echinochloa crusgalli), blackgrass (Alopecurus myosuroides), corn (Zea mays), foxtail, giant (giant foxtail, Setaria faberi), green foxtail (Setaria viridis), goosegrass (Eleusine indica), kochia (Bassia scoparia), oat, wild (wild oat, Avena fatua), pigweed, palmer (palmer amaranth, palmer pigweed, Amaranthus palmeri), Pigweed, Redroot (redroot pigweed, Amaranthus retroflexus), ragweed (common ragweed, Ambrosia artemisiifolia), ryegrass, Italian ([…] ryegrass, Lolium multiflorum), soybean (Glycine max), and wheat (Triticum aestivum) were planted into a blend of loam soil and sand and treated preemergence with a directed soil spray using test chemicals formulated in a non-phytotoxic solvent mixture which included a surfactant. At the same time, plants selected from these crops and weed species and also galium (catchweed bedstraw, Galium aparine) and horseweed (Erigeron canadensis) were planted in pots containing the same blend of loam soil and sand and treated with postemergence applications of test chemicals formulated in the same manner. Plants ranged in height from 2 to 10 cm and were in the one- to two-leaf stage for the postemergence treatment. Treated plants and untreated controls were maintained in a greenhouse for 10 days, after which time all treated plants were compared to untreated controls and visually evaluated for injury. Plant response ratings, summarized in Table C, are based on a 0 to 100 scale where 0 is no effect and 100 is complete control. A dash (-) response means no test result.
# kochia [5] = experiment: Test C preemergence; type: in vivo, Bassia scoparia
# Procedure, shortened: as §1
# oat, wild [6] = experiment: Test C preemergence; type: in vivo, Avena fatua
# Procedure, shortened: as §1
# pigweed, palmer [7] = experiment: Test C preemergence; type: in vivo, Amaranthus palmeri
# Procedure, shortened: as §1
# ragweed [8] = experiment: Test C preemergence; type: in vivo, Ambrosia artemisiifolia
# Procedure, shortened: as §1
# ryegrass, Italian [9] = experiment: Test C preemergence; type: in vivo, Lolium multiflorum
# Procedure, shortened: as §1
# soybean [10] = experiment: Test C preemergence; type: in vivo, Glycine max
# Procedure, shortened: as §1
# wheat [11] = experiment: Test C preemergence; type: in vivo, Triticum aestivum
# Procedure, shortened: as §1
# barnyardgrass [12] = experiment: Test C postemergence; type: in vivo, Echinochloa crusgalli; conditions: 10 days, 0 to 100 scale (0 no effect, 100 complete control)
# Procedure, shortened: as §1
# blackgrass [13] = experiment: Test C postemergence; type: in vivo, Alopecurus myosuroides; conditions: 10 days, 0 to 100 scale (0 no effect, 100 complete control)
# Procedure, shortened: as §1
# corn [14] = experiment: Test C postemergence; type: in vivo, Zea mays; conditions: 10 days, 0 to 100 scale (0 no effect, 100 complete control)
# Procedure, shortened: as §1
# foxtail, giant [15] = experiment: Test C postemergence; type: in vivo, Setaria faberi; conditions: 10 days, 0 to 100 scale (0 no effect, 100 complete control)
# Excerpt: as §2
# kochia [16] = experiment: Test C postemergence; type: in vivo, Bassia scoparia; conditions: 10 days, 0 to 100 scale (0 no effect, 100 complete control)
# Procedure, shortened: as §1
# oat, wild [17] = experiment: Test C postemergence; type: in vivo, Avena fatua; conditions: 10 days, 0 to 100 scale (0 no effect, 100 complete control)
# Procedure, shortened: as §1
# pigweed, palmer [18] = experiment: Test C postemergence; type: in vivo, Amaranthus palmeri; conditions: 10 days, 0 to 100 scale (0 no effect, 100 complete control)
# Procedure, shortened: as §1
# ragweed [19] = experiment: Test C postemergence; type: in vivo, Ambrosia artemisiifolia; conditions: 10 days, 0 to 100 scale (0 no effect, 100 complete control)
# Procedure, shortened: as §1
# ryegrass, Italian [20] = experiment: Test C postemergence; type: in vivo, Lolium multiflorum; conditions: 10 days, 0 to 100 scale (0 no effect, 100 complete control)
# Procedure, shortened: as §1
# soybean [21] = experiment: Test C postemergence; type: in vivo, Glycine max; conditions: 10 days, 0 to 100 scale (0 no effect, 100 complete control)
# Procedure, shortened: as §1
# wheat [22] = experiment: Test C postemergence; type: in vivo, Triticum aestivum; conditions: 10 days, 0 to 100 scale (0 no effect, 100 complete control)
# Procedure, shortened: as §1
# galium = experiment: Test C postemergence; type: in vivo, Galium aparine; conditions: 10 days, 0 to 100 scale (0 no effect, 100 complete control)
# Procedure, shortened: as §1
# horseweed = experiment: Test C postemergence; type: in vivo, Erigeron canadensis; conditions: 10 days, 0 to 100 scale (0 no effect, 100 complete control)
# Procedure, shortened: as §1
# barnyardgrass [23] = experiment: Test D flooded paddy test; type: in vivo, Echinochloa crus-galli; conditions: 250 g ai/ha, applied to paddy water, visual rating after 13 to 14 days, scale 0 to 100 (0 no effect, 100 complete control)
# Procedure, shortened: (§3)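 2-leaf plants; flood 3 cm above soil; compound dosed into paddy water; greenhouse 13–14 d; visual rating vs controls, 0–100 (100 = complete control); dash = not tested.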
# ducksalad = experiment: Test D flooded paddy test; type: in vivo, Heteranthera limosa; conditions: 250 g ai/ha, applied to paddy water, visual rating after 13 to 14 days, scale 0 to 100 (0 no effect, 100 complete control)
# Procedure, shortened: as §3
# rice = experiment: Test D flooded paddy test; type: in vivo, Oryza sativa; conditions: 250 g ai/ha, applied to paddy water, visual rating after 13 to 14 days, scale 0 to 100 (0 no effect, 100 complete control)
# Procedure, shortened: as §3
# sedge, umbrella = experiment: Test D flooded paddy test; type: in vivo, Cyperus difformis; conditions: 250 g ai/ha, applied to paddy water, visual rating after 13 to 14 days, scale 0 to 100 (0 no effect, 100 complete control)
# Procedure, shortened: as §3
# [24] = 500 g ai/ha, preemergence, 0 to 100 scale (0 no effect, 100 complete control)
# [25] = Preemergence, 125 g ai/ha, 0 to 100 scale, 0 no effect, 100 complete control
compound,measurement,setting,value
"Cc1cccc2c1OC(C(F)(F)F)CN2C(=O)c1ccnc(-n2cnc(C(C)C)n2)c1 (single isomer, unassigned) [Compound 320]",Barnyardgrass plant response rating,barnyardgrass [1]; [24],80
same,"Plant response rating, Barnyardgrass",barnyardgrass [1]; [25],30
same,Blackgrass plant response rating,blackgrass [2]; [24],60
same,"Plant response rating, Blackgrass",blackgrass [2]; [25],0
same,Corn plant response rating,corn [3]; [24],30
same,"Plant response rating, Corn",corn [3]; [25],30
same,"Foxtail, Giant plant response rating","foxtail, giant [4]; [24]",90
same,"Plant response rating, Foxtail, Giant","foxtail, giant [4]; [25]",20
same,Kochia plant response rating,kochia [5]; [24],10
same,"Plant response rating, Kochia",kochia [5]; [25],10
same,"Oat, Wild plant response rating","oat, wild [6]; [24]",40
same,"Plant response rating, Oat, Wild","oat, wild [6]; [25]",10
same,"Pigweed, Palmer plant response rating","pigweed, palmer [7]; [24]",100
same,"Plant response rating, Pigweed, Palmer","pigweed, palmer [7]; [25]",20
same,Ragweed plant response rating,ragweed [8]; [24],0
same,"Plant response rating, Ragweed",ragweed [8]; [25],0
same,"Ryegrass, Italian plant response rating","ryegrass, Italian [9]; [24]",90
same,"Plant response rating, Ryegrass, Italian","ryegrass, Italian [9]; [25]",80
same,Soybean plant response rating,soybean [10]; [24],100
same,"Plant response rating, Soybean",soybean [10]; [25],10
same,Wheat plant response rating,wheat [11]; [24],90
same,"Plant response rating, Wheat",wheat [11]; [25],20
same,"Plant response rating, Barnyardgrass","barnyardgrass [12]; 500 g ai/ha, postemergence",20
same,"Plant response rating, Barnyardgrass","barnyardgrass [12]; Postemergence, 125 g ai/ha",0
same,"Plant response rating, Blackgrass","blackgrass [13]; 500 g ai/ha, postemergence",10
same,"Plant response rating, Blackgrass","blackgrass [13]; Postemergence, 125 g ai/ha",0
same,"Plant response rating, Corn","corn [14]; 500 g ai/ha, postemergence",40
same,"Plant response rating, Corn","corn [14]; Postemergence, 125 g ai/ha",10
same,"Plant response rating, Foxtail, Giant","foxtail, giant [15]; 500 g ai/ha, postemergence",40
same,"Plant response rating, Foxtail, Giant","foxtail, giant [15]; Postemergence, 125 g ai/ha",20
same,"Plant response rating, Kochia","kochia [16]; 500 g ai/ha, postemergence",80
same,"Plant response rating, Kochia","kochia [16]; Postemergence, 125 g ai/ha",40
same,"Plant response rating, Oat, Wild","oat, wild [17]; 500 g ai/ha, postemergence",10
same,"Plant response rating, Oat, Wild","oat, wild [17]; Postemergence, 125 g ai/ha",10
same,"Plant response rating, Pigweed, Palmer","pigweed, palmer [18]; 500 g ai/ha, postemergence",50
same,"Plant response rating, Pigweed, Palmer","pigweed, palmer [18]; Postemergence, 125 g ai/ha",0
same,"Plant response rating, Ragweed","ragweed [19]; 500 g ai/ha, postemergence",50
same,"Plant response rating, Ragweed","ragweed [19]; Postemergence, 125 g ai/ha",0
same,"Plant response rating, Ryegrass, Italian","ryegrass, Italian [20]; 500 g ai/ha, postemergence",30
same,"Plant response rating, Ryegrass, Italian","ryegrass, Italian [20]; Postemergence, 125 g ai/ha",20
same,"Plant response rating, Soybean","soybean [21]; 500 g ai/ha, postemergence",100
same,"Plant response rating, Soybean","soybean [21]; Postemergence, 125 g ai/ha",50
same,"Plant response rating, Wheat","wheat [22]; 500 g ai/ha, postemergence",30
same,"Plant response rating, Wheat","wheat [22]; Postemergence, 125 g ai/ha",10
same,"Plant response rating, Galium","galium; 500 g ai/ha, postemergence",70
same,"Plant response rating, Galium","galium; Postemergence, 125 g ai/ha",50
same,"Plant response rating, Horseweed","horseweed; 500 g ai/ha, postemergence",40
same,"Plant response rating, Horseweed","horseweed; Postemergence, 125 g ai/ha",10
same,"Plant response rating, Barnyardgrass (Flood)",barnyardgrass [23],0
same,"Plant response rating, Ducksalad (Flood)",ducksalad,0
same,"Plant response rating, Rice (Flood)",rice,0
same,"Plant response rating, Sedge, Umbrella (Flood)","sedge, umbrella",0
